Results: a melting point compilation (Tetko et al.; mined from patent text by program, amines drawn as free bases though some values may be those of a salt)
Residues, ends and D or L forms follow the SMILES beside them. *: point of attachment. Tos = Cc1ccc(S(=O)(=O)*)cc1

melting point	SMILES
191 to 193 °C	O=[N+]([O-])c1cnn2c(-c3ccc(C(F)(F)F)cc3)ccnc12
199 to 200 °C	N#Cc1cnn2c1N(C(=O)CN1CCC(c3ccccc3)CC1)CC=C2c1cc(Cl)ccc1Cl
245 to 250 °C	O=C(O)c1ccc(=O)n(Cc2ccc(-c3ccccc3)cc2)c1
74 to 76 °C	O=C(C=Cc1ccc(Cl)c(Cl)c1)C1CC1
113 to 115 °C	COc1ccc(-n2nc(CCCO)c(Cl)c2-c2ccc(Cl)cc2)cc1
257 to 259 °C	O=C(Cc1c(-c2ccccc2)c2cc3c(cc2oc1=O)CCC3)Nc1c(Cl)cncc1Cl
242 °C	N#Cc1ccsc1C1=CC(=O)Nc2cc(-c3ccccc3F)c(O)cc2N1
45 to 46 °C	CCC(=O)C(CCCCCCOc1ccc2c(c1)OCO2)C(=O)CC
115 °C	Nc1cccc(OCCN2CCCCC2)c1
164 °C	Cc1ccc(NC(=O)Cc2ccc(OC(C)(C)C(=O)O)cc2)cc1
84 to 85 °C	CCCCCCCCCCCCC(C)(CS(=O)(=O)O)C(=O)O (configuration not stated)
196 °C	COc1ccc(CN(C)CCNc2ccc(NC(=O)c3cccc4c(=O)c5cccc(OC)c5[nH]c34)cc2)cc1OC
147 to 148 °C	COC(=O)CCCc1cc2nc(Cl)ccc2n1S(=O)(=O)c1cccc(-c2cscn2)c1
124 to 126 °C	CC(=O)Oc1ccc([C@H]2[C@H](c3ccccc3)C2(Cl)Cl)cc1 (relative stereo)
146 to 149 °C	Cc1cccc(-c2[nH]c(C(C)(C)C)nc2-c2cccc(-c3ccc(C(=O)NC4CCOCC4)cc3)c2)n1
264 to 266 °C	Cc1nc2cc(C(C)(C)C)c(O)cc2o1
174 °C	Nc1cc(Cl)cnc1Oc1ccc(O)cc1
99 to 100 °C	NC(=O)N(O)CCOCc1ccsc1
76 °C	CCOC(=O)c1c(N(C)C)cc(C)c([N+](=O)[O-])c1Cl
189 °C	CC(=O)OC1CSC(Oc2ccc(-c3ccncc3)nc2)C(OC(C)=O)C1OC(C)=O (configuration not stated)
206 to 207 °C	OC(Cc1nnccc1-c1c(-c2ccccc2)nn2ccccc12)C(Cl)(Cl)Cl (configuration not stated)
166 to 168 °C	O=C(NCC1CCCCCC1)c1cc(-c2cccnc2C(=O)O)ccc1Cl
194 to 196 °C	COc1cc2c(cc1OC)-c1c(C(=O)c3ccccc3)c(-c3cc(C)c(O)c(C)c3)c(C)n1CC2

melting point	SMILES
91 to 94 °C	COCc1cnc2c([N+](=O)[O-])cccc2c1Cl
150 to 157 °C	O=C(Nc1cc(C(F)(F)F)cc2c(Cl)ccnc12)c1c(Cl)cccc1Cl
88 to 90 °C	CCn1ncc2cc3c(nc21)CCc1ccccc1C3=O
49 to 50 °C	CCOc1cc(C(=O)CCCC2CCCCC2)c(OCC)cc1C
> 260 °C	CC1(C)CCC2=C(C1=O)C(c1ccc(F)c(Br)c1)C1=C(COCC1=O)N2 (configuration not stated)
123 to 125 °C	O=S(=O)(Nc1cc(C(F)(F)F)ccc1Oc1ccccc1CO)c1cc(C(F)(F)F)cc(C(F)(F)F)c1
142 to 146 °C	Cc1ccccc1C(=O)Nc1ccc(C(=O)N2Cc3ccnn3Cc3ccccc32)cc1
208 to 210 °C	N=C(N)Nc1nc(CCCCNc2c(NCCSCc3csc(NC(=N)N)n3)c(=O)c2=O)cs1
36.9 to 37.9 °C	CCCCCCCCCCCCCCOc1cc(C)ccc1C
235 to 237 °C	Cn1c(=O)c(-c2c(Cl)cccc2Cl)cc2cnc(N)nc21
194 to 195 °C	O=C(CCC1c2ccccc2-c2ccccc21)N[C@@H](Cc1ccccc1)C(=O)O
198 to 200 °C	COc1ccc(S(=O)(=O)N(CCO)c2ccccc2/C=C/c2ccncc2)cc1
233 to 235 °C	NS(=O)(=O)c1ccc(NC(=O)Nc2ccccc2)cc1
138 to 139 °C	Cc1cc(Cl)ccc1Oc1ccc(C(=O)C=CC(=O)O)cc1
200 to 201 °C	CC(CS(=O)(=O)c1ccc(-c2ccc3c(c2)OCO3)cc1)N(O)C=O (configuration not stated)
138 to 140 °C	CCOC(c1ccc(Cl)c2nc3n(c12)CCCN3c1ccc(Cl)cc1Cl)C1CC1 (configuration not stated)
207 to 208 °C	O=C1Nc2ccccc2N(C(=O)CN2C(=O)c3ccccc3C2=O)C2CCCC12 (configuration not stated)
265 to 266 °C	Cc1ccc(-c2nnc(N3CCN(c4ccc(O)cc4)CC3)c3ccccc23)cc1
167 to 168 °C	CCCCn1c(=O)c2nn(S(=O)(=O)c3ccc4ccccc4c3)cc2n(CCCC)c1=O
128 to 130 °C	CCCCN(CCCC)CCNC(=O)c1cccc(NC(=O)N2CCc3cc(SC)c(C(F)(F)F)cc32)c1
106 to 109 °C	CCCCCCCCCCCCCCOc1ccc(CC(=O)Nc2ccc(-n3ccnc3C)cc2)cc1
135 to 137 °C	C=CCC1(O)CCC2C3CCC4=CC(=O)CCC4C3CCC21CCC (configuration not stated)
85 °C	COC(=O)C1Oc2ccc(Cl)cc2C(c2ccccc2)(C(C)(C)C)O1 (configuration not stated)

melting point	SMILES
110 °C	CCOc1ccc([N+](=O)[O-])c(C=C[N+](=O)[O-])c1OCc1ccccc1
140 to 143 °C	CC1(O)c2ccccc2CC12CCC1(CC2)OCCO1 (configuration not stated)
294 to 295 °C	COc1ccc(-c2c(Cl)c(CN3C(=O)CCC3=O)nc3sc4c(F)c(O)ccc4c23)cc1
49 to 50 °C	NC(=O)CNC(=O)c1ccnc(-c2cccc3sc(Cc4cccc(C(F)(F)F)c4)cc23)c1
65 °C	CC(C)(C)C(=O)COc1ccc(Cl)cc1Cl
141 to 143 °C	CCN(CC)CCOc1ccc(Nc2ncc3cc(-c4c(Cl)cccc4Cl)c(=O)n(C)c3n2)cc1
168 to 171 °C	NNC(=O)c1ccc(OCc2ccccc2)c(Cl)c1
121 to 123 °C	C/C(=C\c1ccc(OC(C)C)cc1Oc1ncc(C(F)(F)F)cc1Cl)C(=O)NS(=O)(=O)NCCc1ccccn1
164 to 166 °C	Cc1ccc(S(=O)(=O)N2CCC[C@H]2C(=O)N[C@@H](CCC(=O)O)C(=O)O)cc1 (Tos-Pro-Glu-OH)
208 to 209 °C	COc1cc(OC)c(-c2cc3ccccc3s2)cc1/C=C/C(=O)c1ccc(C(=O)NC(=O)C(C)C)cc1
193 to 196 °C	COc1ccccc1-c1cn(C)cc(-c2cccc(C(F)(F)F)c2)c1=O
187 to 188 °C	CC(C)S(=O)(=O)n1c(N)nc2ccc(C(=C(Cl)Cl)c3ccccc3)cc21
95 to 96 °C	CCOCc1cc2ccccc2oc1=O
215 to 217 °C	CCCc1nc2ccc(N(C)C)nn2c1S(N)(=O)=O
174 to 176 °C	Cc1nc2cnccc2n1-c1ccc2c(c1)CC(C#N)C2 (configuration not stated)
45 °C	Cc1cc(CCCCCCO)cc(C(C)(C)C)c1O
140 to 150 °C	CCCCn1ccc(Cc2cnc(NCCCCc3ncc(Br)cc3N)[nH]c2=O)cc1=O
53 to 54 °C	CCSCc1cnn(-c2c(Cl)cc(C(F)(F)F)cc2Cl)n1
126 to 128 °C	CC(C)(C)OC(=O)N1CCN(c2ncnc3c2cnn3Cc2cccc(Br)n2)CC1
285 °C	O=C1c2ccc3c4cccc5cccc(c6ccc(c2c36)C(=O)N1C1CCCCCCCCCCC1)c54
214 to 217 °C	CCOc1ccc2c(=O)c(-c3nnnn3C)cn(C)c2c1
199 to 200 °C	Cn1ncc2c(=S)n3c(nc21)SCC3
320 °C	O=c1ccc2c(=O)c3ccccc3ccc2[nH]1

melting point	SMILES
172 °C	Nc1cc([N+](=O)[O-])cc(CCO)c1N
158 to 159 °C	Cc1ccc(-c2c(CN3C(=O)c4ccccc4C3=O)n(CC(C)C)c(=O)c3ccc(OCc4ccccc4)cc23)cc1
191 to 193 °C	O=C1CC[C@@H](C(=O)N[C@@H](CSSC[C@H](NC(=O)[C@@H]2CCC(=O)N2)C(=O)O)C(=O)O)N1
208 to 210 °C	S=c1cc(Oc2c(Cl)cccc2Cl)c2cc(Cl)ccc2s1
331 to 334 °C	O=C(O)CCC(=O)N1CCN(c2cc3c(cc2F)c(=O)c(C(=O)O)c2sccn23)CC1
280 to 283 °C	N#Cc1c(N)nc2ccc([N+](=O)[O-])cc2c1NCc1ccccc1
84 to 86 °C	COc1cccc(C=CCC(=O)O)c1OC
142 to 144 °C	CC(C)(C)OC(=O)Nc1ccc(C#Cc2ccccn2)cc1[N+](=O)[O-]
205 to 206 °C	O=C1c2ccccc2C(=O)N1Nc1ccc(Br)cc1
275 °C	CCc1[nH]c(=S)[nH]c1C(=O)c1ccncc1
139 to 140 °C	CC(C)CCS(=O)(=O)NC(=O)/C=C/c1cc(OC(C)C)nn1Cc1ccc(C(F)(F)F)cc1Cl
117 to 120 °C	CC1=C(C(=O)OC(C)C)C(c2cccc([N+](=O)[O-])c2)C(C(=O)C(C)S(=O)(=O)NC(C)C)=C(C)N1 (configuration not stated)
213 to 215 °C	O=C(O)Cc1c(C(=O)c2cccc(O)c2)[nH]c2cc(Cl)ccc12
228 to 230 °C	CCN1C(=O)COc2ccc(-c3sc(N)nc3-c3cccc(C)n3)cc21
176 to 178 °C	CCCOc1ccccc1C(=O)Nc1sccc1C(N)=O
82 to 83 °C	C#CC1(Oc2ccc(F)cc2[N+](=O)[O-])CCN(C(=O)Oc2ccccc2)CC1
178 to 179 °C	CCOC(=O)c1cc(-c2nccs2)[nH]c1C(CC1CCOCC1)c1ccc(S(=O)(=O)C2CC2)cc1 (configuration not stated)
196 to 198 °C	O=C(NCCN1CCOCC1)c1nnc2ccccc2c1O
167 to 170 °C	N#Cc1nc(-c2cnn(-c3c(Cl)cc(C(F)(F)F)cc3Cl)c2Br)[nH]c1C#N
67 to 73 °C	COC(=O)C1C(CC(C)C)C(C(=O)OC)C(O)(C(F)(F)F)OC1(O)C(F)(F)F (configuration not stated)
110 to 113 °C	Cc1nc2cc(Cl)cc(Cl)c2o1

SMILES	melting point
O=C1c2ccccc2-n2cnc(-c3nc(C4CC4)no3)c2[C@@H]2CCCN12	211 to 212 °C
O=C(COC(=O)CCCc1ccc(N(CCCl)CCCl)cc1)NCCCC(O)(P(=O)(O)O)P(=O)(O)O	> 260 °C
CC1Oc2c(C(=O)[NH+]([O-])C3CN4CCC3CC4)cc(Cl)cc2N(C)C1=O (configuration not stated)	188 to 190 °C
CC(C)C(C)(C)[Si](C)(C)OC1CCC2(C)C(=CC=C3C4CCC(=O)C4(C)CCC32)C1 (configuration not stated)	119 to 125 °C
ClCCNc1ccnc2cc(Cl)ccc12	239 to 240 °C
CC1CCC2(C)C(=CCC3C4CCC(=O)C4(C)CCC32)C1 (configuration not stated)	148 to 150 °C
CCc1cccc2c(C(N)CO)c[nH]c12 (configuration not stated)	84 to 86 °C
